Results from ChEMBL document CHEMBL4270599, “Synthesis of a 3'-C-ethynyl-β-d-ribofuranose purine nucleoside library: Discovery of C7-deazapurine analogs as potent antiproliferative nucleosides” (Eur J Med Chem, 2018).

Key:
Assay type in all cases: functional
K562 [1] = experiment: Cytotoxicity against human K562 cells after 48 hrs by SRB assay; conditions: K562, 48 h
HCT-116 [2] = experiment: Cytotoxicity against human HCT116 cells after 48 hrs by SRB assay; conditions: HCT-116, 48 h
HCT-15 [3] = experiment: Cytotoxicity against human HCT15 cells after 48 hrs by SRB assay; conditions: HCT-15, 48 h
SF-295 = experiment: Cytotoxicity against human SF295 cells after 48 hrs by SRB assay; conditions: SF-295, 48 h
SNB-75 = experiment: Cytotoxicity against human SNB75 cells after 48 hrs by SRB assay; conditions: SNB-75, 48 h
SK-MEL-2 = experiment: Cytotoxicity against human SK-MEL-2 cells after 48 hrs by SRB assay; conditions: SK-MEL-2, 48 h
SK-MEL-5 = experiment: Cytotoxicity against human SK-MEL-5 cells after 48 hrs by SRB assay; conditions: SK-MEL-5, 48 h
T47D = experiment: Cytotoxicity against human T47D cells after 48 hrs by SRB assay
SNB-19 = experiment: Growth inhibition of human SNB19 cells assessed as cell growth at 10^-8 M incubated for 48 hrs by sulforhodamine B assay relative to control; conditions: SNB-19, 48 h, read-out: Activity
OVCAR-8 = experiment: Growth inhibition of human OVCAR8 cells assessed as cell growth at 10^-8 M incubated for 48 hrs by sulforhodamine B assay relative to control; conditions: OVCAR-8, 48 h, read-out: Activity
SK-OV-3 = experiment: Growth inhibition of human SKOV3 cells assessed as cell growth at 10^-8 M incubated for 48 hrs by sulforhodamine B assay relative to control; conditions: SK-OV-3, 48 h, read-out: Activity
UO-31 = experiment: Growth inhibition of human UO31 cells assessed as cell growth at 10^-8 M incubated for 48 hrs by sulforhodamine B assay relative to control; conditions: UO-31, 48 h, read-out: Activity
HOP-92 = experiment: Growth inhibition of human HOP92 cells assessed as cell growth at 10^-7 M incubated for 48 hrs by sulforhodamine B assay relative to control; conditions: HOP-92, 48 h, read-out: Activity
NCI-H226 = experiment: Growth inhibition of human NCI-H226 cells assessed as cell growth at 10^-7 M incubated for 48 hrs by sulforhodamine B assay relative to control; conditions: NCI-H226, 48 h, read-out: Activity
NCI-H460 = experiment: Growth inhibition of human NCI-H460 cells assessed as cell growth at 10^-7 M incubated for 48 hrs by sulforhodamine B assay relative to control; conditions: NCI-H460, 48 h, read-out: Activity
HT-29 = experiment: Growth inhibition of human HT-29 cells assessed as cell growth at 10^-7 M incubated for 48 hrs by sulforhodamine B assay relative to control; conditions: HT-29, 48 h, read-out: Activity
SF-268 [4] = experiment: Growth inhibition of human SF268 cells assessed as cell growth at 10^-7 M incubated for 48 hrs by sulforhodamine B assay relative to control; conditions: SF-268, 48 h, read-out: Activity
OVCAR-3 = experiment: Growth inhibition of human OVCAR3 cells assessed as cell growth at 10^-7 M incubated for 48 hrs by sulforhodamine B assay relative to control; conditions: OVCAR-3, 48 h, read-out: Activity
PC-3 = experiment: Growth inhibition of human PC3 cells assessed as cell growth at 10^-7 M incubated for 48 hrs by sulforhodamine B assay relative to control; conditions: PC-3, 48 h, read-out: Activity
MDA-MB-231 [5] = experiment: Growth inhibition of human MDA-MB-231 cells assessed as cell growth at 10^-7 M incubated for 48 hrs by sulforhodamine B assay relative to control; conditions: MDA-MB-231, 48 h, read-out: Activity
NCI-H23 = experiment: Growth inhibition of human NCI-H23 cells assessed as cell growth at 10^-6 M incubated for 48 hrs by sulforhodamine B assay relative to control; conditions: NCI-H23, 48 h, read-out: Activity
SF-268 [6] = experiment: Growth inhibition of human SF268 cells assessed as cell growth at 10^-6 M incubated for 48 hrs by sulforhodamine B assay relative to control; conditions: SF-268, 48 h, read-out: Activity
Malme-3M = experiment: Growth inhibition of human MALME-3M cells assessed as cell growth at 10^-6 M incubated for 48 hrs by sulforhodamine B assay relative to control; conditions: read-out: Activity
TK-10 = experiment: Growth inhibition of human TK10 cells assessed as cell growth at 10^-6 M incubated for 48 hrs by sulforhodamine B assay relative to control; conditions: TK-10, 48 h, read-out: Activity
MDA-MB-231 [7] = experiment: Growth inhibition of human MDA-MB-231 cells assessed as cell growth at 10^-6 M incubated for 48 hrs by sulforhodamine B assay relative to control; conditions: MDA-MB-231, 48 h, read-out: Activity
SR = experiment: Growth inhibition of human SR cells assessed as cell growth at 10^-5 M incubated for 48 hrs by sulforhodamine B assay relative to control; conditions: read-out: Activity
HCT-116 [8] = experiment: Growth inhibition of human HCT116 cells assessed as cell growth at 10^-5 M incubated for 48 hrs by sulforhodamine B assay relative to control; conditions: HCT-116, 48 h, read-out: Activity
SN12C = experiment: Growth inhibition of human SN12C cells assessed as cell growth at 10^-5 M incubated for 48 hrs by sulforhodamine B assay relative to control; conditions: read-out: Activity
K562 [9] = experiment: Growth inhibition of human K562 cells assessed as cell growth at 10^-4 M incubated for 48 hrs by sulforhodamine B assay relative to control; conditions: K562, 48 h, read-out: Activity
HCT-15 [10] = experiment: Growth inhibition of human HCT15 cells assessed as cell growth at 10^-4 M incubated for 48 hrs by sulforhodamine B assay relative to control; conditions: HCT-15, 48 h, read-out: Activity
KM12 = experiment: Growth inhibition of human KM12 cells assessed as cell growth at 10^-4 M incubated for 48 hrs by sulforhodamine B assay relative to control; conditions: KM12, 48 h, read-out: Activity
786-0 = experiment: Cytotoxicity against human 786-0 cells after 48 hrs by SRB assay; conditions: 786-0, 48 h
[11] = read-out: LC50 (the source's name)

SMILES: C#C[C@@]1(O)[C@@H](CO)O[C@@H](n2cc(Br)c3c(N)ncnc32)[C@@H]1O
- GI50 (K562 [1]; read-out: GI50): 41.1 to 90 nM
- CC50 (K562 [1]; [11]): > 100000 nM
- TGI (K562 [1]; read-out: TGI): > 100000 nM
- TGI (K562 [1]; read-out: pTGI): > 100000 nM
- GI50 (HCT-116 [2]; read-out: GI50): 25.8 to 29.2 nM
- CC50 (HCT-116 [2]; [11]): > 100000 nM
- TGI (HCT-116 [2]; read-out: TGI): > 100000 nM
- TGI (HCT-116 [2]; read-out: pTGI (converted)): > 100000 nM
- GI50 (HCT-15 [3]; read-out: GI50): 172 to 707 nM
- CC50 (HCT-15 [3]; [11]): > 100000 nM
- TGI (HCT-15 [3]; read-out: TGI): > 100000 nM
- TGI (HCT-15 [3]; read-out: pTGI (converted)): > 100000 nM
- GI50 (SF-295; read-out: GI50): 189 to 466 nM
- CC50 (SF-295; [11]): > 100000 nM
- TGI (SF-295; read-out: TGI): 4120 to 13700 nM
- GI50 (SNB-75; read-out: GI50): 221 to 249 nM
- CC50 (SNB-75; [11]): 1640 to 3670 nM
- TGI (SNB-75; read-out: TGI): 519 to 1070 nM
- GI50 (SK-MEL-2; read-out: GI50): 197 to 916 nM
- CC50 (SK-MEL-2; [11]): 49500 to 100000 nM
- TGI (SK-MEL-2; read-out: TGI): 430 to 758 nM
- GI50 (SK-MEL-5; read-out: GI50): 47.8 to 239 nM
- CC50 (SK-MEL-5; [11]): 6240 to 100000 nM
- TGI (SK-MEL-5; read-out: TGI): 522 to 7180 nM
- GI50 (T47D; read-out: GI50): 17.3 to 43.2 nM
- TGI (T47D; read-out: TGI): 177 nM
- CC50 (T47D; read-out: pLC50 (the source's name) (converted)): > 100000 nM
- TGI (T47D; read-out: pTGI (converted)): 178 nM
- growth at 0.01 µM (SNB-19): 64 to 98%
- growth at 0.01 µM (OVCAR-8): 53 to 76%
- growth at 0.01 µM (SK-OV-3): 91 to 93%
- growth at 0.01 µM (UO-31): 70 to 84%
- growth at 0.1 µM (HOP-92): 63 to 78%
- growth at 0.1 µM (NCI-H226): 81 to 98%
- growth at 0.1 µM (NCI-H460): 9 to 27%
- growth at 0.1 µM (HT-29): 10 to 35%
- growth at 0.1 µM (SF-268 [4]): 78 to 87%
- growth at 0.1 µM (OVCAR-3): 62 to 72%
- growth at 0.1 µM (PC-3): 33 to 61%
- growth at 0.1 µM (MDA-MB-231 [5]): 36 to 71%
- growth at 1 µM (NCI-H23): 7 to 13%
- growth at 1 µM (SF-268 [6]): 34 to 36%
- growth at 1 µM (Malme-3M): 43 to 47%
- growth at 1 µM (TK-10): 17 to 27%
- growth at 1 µM (MDA-MB-231 [7]): 2 to 8%
- growth at 10 µM (SR): 1 to 5%
- growth at 10 µM (HCT-116 [8]): 3 to 5%
- growth at 10 µM (SN12C): 1 to 3%
- growth at 100 µM (K562 [9]): 7%
- growth at 100 µM (HCT-15 [10]): 1 to 4%
- growth at 100 µM (KM12): 2 to 10%
- GI50 (786-0; read-out: GI50): 164 to 351 nM
- TGI (786-0; read-out: TGI): 593 to 1630 nM
